Assay results taken from article PMC11855827, “High-Throughput Screening of Five Compound Libraries for Anthelmintic Activity and Toxicity Leads to the Discovery of Two Flavonoid Compounds” (International Journal of Molecular Sciences, 2025).
Several values for one entry are separate records, joined by “and”; a condition that tells them apart may be missing. Equal values may be shown once. Read-outs that look alike come from different tables or passages of the source. Where a SMILES comes first, the peptide text is derived from it.

Tested on: C. elegans
[1] = Table S2, C. elegans SS assay, 110 μM, averages of 4 data points

Cl.Oc1ccc(CC2NCCc3cc(O)c(O)cc32)cc1 (centres unmarked) [Higenamine (hydrochloride)]
Percentage of motility inhibition 0 h [1]: 0%
Percentage of motility inhibition 24 h [1]: 7%

Cl.Cl.NCCc1c[nH]cn1 [Histamine (dihydrochloride)]
Percentage of motility inhibition 0 h [1]: 0%
Percentage of motility inhibition 24 h [1]: 3%

NCCc1c[nH]cn1.O=P(O)(O)O.O=P(O)(O)O [Histamine (phosphate)]
Percentage of motility inhibition 0 h [1]: 6% and 9%

COc1c(O[C@@H]2O[C@H](CO)[C@@H](O)[C@H](O)[C@H]2O)cc2oc(-c3ccc(O)cc3)cc(=O)c2c1O [Homoplantaginin]
Percentage of motility inhibition 0 h [1]: 19%
Percentage of motility inhibition 24 h [1]: 5%

C[C@@H](CO)[C@@H]1CC[C@@]2(CC[C@]3(C)[C@H](CC[C@@H]4[C@@]5(C)CC[C@H](O[C@@H]6O[C@H](CO)[C@@H](O)[C@H](O)[C@H]6O[C@@H]6O[C@H](CO)[C@@H](O)[C@H](O)[C@H]6O)[C@@](C)(CO[C@@H]6O[C@H](CO)[C@@H](O)[C@H](O)[C@H]6O)[C@@H]5CC[C@]43C)[C@H]2O)CO1 [Hosenkoside A]
Percentage of motility inhibition 0 h [1]: 15%
Percentage of motility inhibition 24 h [1]: 19%

C[C@H](CO[C@@H]1O[C@H](CO)[C@@H](O)[C@H](O)[C@H]1O)[C@H]1CC[C@@]2(CC[C@]3(C)[C@H](CC[C@@H]4[C@@]5(C)CC[C@H](O[C@@H]6O[C@H](CO)[C@@H](O)[C@H](O)[C@H]6O[C@@H]6O[C@H](CO)[C@@H](O)[C@H](O)[C@H]6O)[C@@](C)(CO)[C@@H]5CC[C@]43C)[C@H]2O)CO1 [Hosenkoside B]
Percentage of motility inhibition 0 h [1]: 7%
Percentage of motility inhibition 24 h [1]: 10%

C[C@H](CO[C@@H]1O[C@H](CO)[C@@H](O)[C@H](O)[C@H]1O)[C@H]1CC[C@@]2(CC[C@]3(C)[C@H](CC[C@@H]4[C@@]5(C)CC[C@H](O[C@@H]6O[C@H](CO)[C@@H](O)[C@H](O)[C@H]6O[C@@H]6OC[C@@H](O)[C@H](O)[C@H]6O)[C@@](C)(CO)[C@@H]5CC[C@]43C)[C@H]2O)CO1 [Hosenkoside F]
Percentage of motility inhibition 0 h [1]: 12%
Percentage of motility inhibition 24 h [1]: 0%

C[C@@H](CO[C@@H]1O[C@H](CO)[C@@H](O)[C@H](O)[C@H]1O)[C@@H]1CC[C@@]2(CC[C@]3(C)[C@H](CC[C@@H]4[C@@]5(C)CC[C@H](O[C@@H]6O[C@H](CO)[C@@H](O)[C@H](O)[C@H]6O[C@@H]6O[C@H](CO)[C@@H](O)[C@H](O)[C@H]6O)[C@@](C)(CO[C@@H]6O[C@H](CO)[C@@H](O)[C@H](O)[C@H]6O)[C@@H]5CC[C@]43C)[C@H]2O)CO1 [Hosenkoside K]
Percentage of motility inhibition 0 h [1]: 10%
Percentage of motility inhibition 24 h [1]: 2%

C[C@@H](CO[C@@H]1O[C@H](CO)[C@@H](O)[C@H](O)[C@H]1O)[C@@H]1CC[C@@]2(CC[C@]3(C)[C@H](CC[C@@H]4[C@@]5(C)CC[C@H](O[C@@H]6O[C@H](CO)[C@@H](O)[C@H](O)[C@H]6O[C@@H]6OC[C@@H](O)[C@H](O)[C@H]6O)[C@@](C)(CO[C@@H]6O[C@H](CO)[C@@H](O)[C@H](O)[C@H]6O)[C@@H]5CC[C@]43C)[C@H]2O)CO1 [Hosenkoside M]
Percentage of motility inhibition 0 h [1]: 5%
Percentage of motility inhibition 24 h [1]: 0%

CCC1=N[C@H]2C[C@@]3(C(=O)N(OC)c4ccccc43)[C@H]3CC1[C@@H]2CO3 [Humantenmine]
Percentage of motility inhibition 0 h [1]: 8%
Percentage of motility inhibition 24 h [1]: 12%

C[C@H]1CC[C@H]2[C@H](C)[C@@H]3CC[C@@H]4[C@@H](C[C@H]5[C@H]4C[C@@H](O)[C@H]4C[C@@H](O)CC[C@@]45C)[C@@H]3CN2C1 [Hupehenine]
Percentage of motility inhibition 0 h [1]: 0%
Percentage of motility inhibition 24 h [1]: 10%

CC[C@H]1CN2CC[C@H]1C[C@@H]2[C@@H](O)c1ccnc2ccc(OC)cc12 [Hydroquinidine]
Percentage of motility inhibition 0 h [1]: 29% and 50%

COc1cc(O)c2c(=O)cc(-c3ccc(O)c(O)c3)oc2c1 [Hydroxygenkwanin]
Percentage of motility inhibition 0 h [1]: 11%
Percentage of motility inhibition 24 h [1]: 13%

C/C=C/C=C/C=C\CC/C=C/C(=O)NCC(C)(C)O [Hydroxy‐α‐sanshool]
Percentage of motility inhibition 0 h [1]: 3%
Percentage of motility inhibition 24 h [1]: 0%

C/C=C/C=C/C=C/CC/C=C/C(=O)NCC(C)(C)O [Hydroxy‐β‐sanshool]
Percentage of motility inhibition 0 h [1]: 46%
Percentage of motility inhibition 24 h [1]: 10%

NCC(=O)N1CCC[C@H]1C(=O)O [H‐Gly‐Pro‐OH] (H-Gly-Pro-OH)
Percentage of motility inhibition 0 h [1]: 8%
Percentage of motility inhibition 24 h [1]: 4%

NCCCC[C@H](NC(=O)[C@H](Cc1c[nH]c2ccccc12)NC(=O)[C@@H](N)CCCCN)C(=O)O [H‐Lys‐Trp‐Lys‐OH] (H-Lys-Trp-Lys-OH)
Percentage of motility inhibition 0 h (110 μM): 55%
Percentage of motility inhibition 24 h (110 µM): 10%

CCCCCCCCCCCCC(=O)NNC(=O)c1c(O)c2ccccc2n(CC)c1=O [I2906]
Percentage of motility inhibition 0 h [1]: 27%
Percentage of motility inhibition 24 h [1]: 30%

CC(C)=CCc1c(O)cc(O)c2c(=O)c(O[C@@H]3O[C@@H](C)[C@H](O)[C@@H](O)[C@H]3O)c(-c3ccc(O)cc3)oc12 [IKarisoside A]
Percentage of motility inhibition 0 h [1]: 32%
Percentage of motility inhibition 24 h [1]: 5%

COc1ccc(-c2oc3c(CC=C(C)C)c(O[C@@H]4O[C@H](CO)[C@@H](O)[C@H](O)[C@H]4O)cc(O)c3c(=O)c2O)cc1 [Icariside I]
Percentage of motility inhibition 0 h [1]: 0%
Percentage of motility inhibition 24 h [1]: 23%

CC(C(O)c1ccc(O)cc1)N1CCC(Cc2ccccc2)CC1.CC(C(O)c1ccc(O)cc1)N1CCC(Cc2ccccc2)CC1.O=C(O)C(O)C(O)C(=O)O (centres unmarked) [Ifenprodil (ta rtrate)]
Percentage of motility inhibition 0 h [1]: 12%
Percentage of motility inhibition 24 h [1]: 15%

C[C@@H]1CC[C@]2(C(=O)O)CC[C@]3(C)C(=CC[C@@H]4[C@@]5(C)CC[C@H](O)[C@](C)(C(=O)O)[C@@H]5CC[C@]43C)[C@@H]2[C@]1(C)O [Ilexgenin A]
Percentage of motility inhibition 0 h [1]: 27%
Percentage of motility inhibition 24 h [1]: 0%

C[C@H]1CC[C@]2(C(=O)O)CC[C@]3(C)C(=CC[C@@H]4[C@@]5(C)CC[C@H](O[C@@H]6OC[C@@H](O)[C@H](O)[C@H]6O[C@@H]6O[C@H](CO)[C@@H](O)[C@H](O)[C@H]6O)C(C)(C)[C@@H]5CC[C@]43C)[C@@H]2[C@]1(C)O [Ilexoside D]
Percentage of motility inhibition 0 h [1]: 0%
Percentage of motility inhibition 24 h [1]: 22%

C[C@@H]1CC[C@]2(C(=O)O[C@@H]3O[C@H](CO)[C@@H](O)[C@H](O)[C@H]3O)CC[C@]3(C)C(=CC[C@@H]4[C@@]5(C)CC[C@H](O)[C@](C)(C(=O)O)[C@@H]5CC[C@]43C)[C@@H]2[C@]1(C)O [Ilexsaponin A]
Percentage of motility inhibition 0 h [1]: 0%
Percentage of motility inhibition 24 h [1]: 12%

C[C@H]1CC[C@@H]2N(C1)C[C@H]1[C@@H]3C[C@H]4[C@@H](CC(=O)[C@H]5C[C@@H](O[C@@H]6O[C@H](CO)[C@@H](O)[C@H](O)[C@H]6O)CC[C@@]54C)[C@@H]3CC[C@H]1[C@]2(C)O [Imperialine 3‐β‐D‐glucoside]
Percentage of motility inhibition 0 h [1]: 10%
Percentage of motility inhibition 24 h [1]: 10%

CC(=O)O[C@H]1CC/C(C)=C/CC/C(C)=C/C[C@]2(C(C)C)CC[C@@]1(C)O2 [Incensole Acetate]
Percentage of motility inhibition 0 h [1]: 9%
Percentage of motility inhibition 24 h [1]: 17%

CC(C)(C)NC(=O)[C@@H]1CN(Cc2cccnc2)CCN1C[C@@H](O)C[C@@H](Cc1ccccc1)C(=O)N[C@H]1c2ccccc2C[C@H]1O.O=S(=O)(O)O [Indinavir (sulfate)]
Percentage of motility inhibition 0 h [1]: 8%
Percentage of motility inhibition 24 h [1]: 10%

O=Cc1c[nH]c2ccccc12 [Indole‐3‐carboxaldehyde]
Percentage of motility inhibition 0 h [1]: 0%
Percentage of motility inhibition 24 h [1]: 17%

CC1=C[C@]23C(=O)[C@@H](C=C(COC(=O)c4ccccc4)[C@@H](O)[C@]2(O)[C@H]1OC(=O)c1ccccc1)[C@H]1[C@@H](C[C@H]3C)C1(C)C [Ingenol 3,20-dibenzoate]
Percentage of motility inhibition 0 h [1]: 0%
Percentage of motility inhibition 24 h [1]: 0%

CC1=CC23C(=O)C(C=C4COC(C)(C)OC4C24OC(C)(C)OC14)C1C(CC3C)C1(C)C (centres unmarked) [Ingenol-3,4,5,20-diacetonide]
Percentage of motility inhibition 0 h [1]: 1%
Percentage of motility inhibition 24 h [1]: 9%

C/C=C(/C)C(=O)O[C@H]1C(C)=C[C@]23C(=O)[C@@H](C=C4COC(C)(C)O[C@H]4[C@]12O)[C@H]1[C@@H](C[C@H]3C)C1(C)C [Ingenol-5,20-acetonide-3-O-angelate]
Percentage of motility inhibition 0 h [1]: 0%
Percentage of motility inhibition 24 h [1]: 0%

C=C1C(=O)O[C@@H]2CC(C)=C([C@@H](C)CCCOC(C)=O)[C@@H](O)[C@H]12 [Inulicin]
Percentage of motility inhibition 0 h [1]: 0%
Percentage of motility inhibition 24 h [1]: 16%

C=C[C@H]1[C@H](O[C@@H]2O[C@H](CO)[C@@H](O)[C@H](O)[C@H]2O)OC=C(C(=O)OC)[C@H]1C[C@@H]1c2cc(O)c(O)cc2CCN1C(C)=O [Ipecoside]
Percentage of motility inhibition 0 h [1]: 0%
Percentage of motility inhibition 24 h [1]: 14%

CCc1c2c(nc3ccc(OC(=O)N4CCC(N5CCCCC5)CC4)cc13)-c1cc3c(c(=O)n1C2)COC(=O)[C@]3(O)CC.Cl [Irinotecan (hydrochloride)]
Percentage of motility inhibition 0 h [1]: 0%
Percentage of motility inhibition 24 h [1]: 11%

COc1ccc(-c2coc3cc(O[C@@H]4O[C@H](CO)[C@@H](O)[C@H](O)[C@H]4O)c(OC)c(O)c3c2=O)cc1O [Iristectorin A]
Percentage of motility inhibition 0 h [1]: 0%
Percentage of motility inhibition 24 h [1]: 2%
